Experimental data taken from patent US12083101B2, “Biaryl derivatives as YAP/TAZ-TEAD protein-protein interaction inhibitors” (Novartis AG, priority 2020, dated 2024).
Read-outs that look alike come from different tables or passages of the source.

Experiments:
[1] = tested on: NCI-H2052 Tet-On shYAP_2371 pLenti6 MCAT_Luc cells (YAP-dependent transcription); experiment: YAP reporter gene activity assay (MCAT-luciferase), NCI-H2052; assay type: cell-based; details: 24 hours incubation, BrightGlo luminescence
Procedure, shortened: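 NCI-H2052 cells carrying an MCAT-luciferase reporter and a tetracycline-inducible YAP 3′UTR shRNA were treated with eleven 2-fold compound dilutions (0.1% DMSO) for 24 h at 37 °C. BrightGlo luminescence was background-subtracted and expressed as % of DMSO control. IC50 came from a four-parameter fit; MKN-45/Ubc-luc cells served as the specificity counterscreen.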

[2] = biological target: His-humanTEAD4 217-434 / N-biotinylated YAP 60-100 (Homo sapiens (Human), UniProt Q15561); experiment: TR-FRET YAP-TEAD4 biochemical assay, alternative format; assay type: binding; details: alternative format, marked with star *); 5 nM His-humanTEAD4 217-434, 10 nM N-biotinylated YAP 60-100
Chain of His-humanTEAD4 217-434 / N-biotinylated YAP 60-100 (Q15561 217-434): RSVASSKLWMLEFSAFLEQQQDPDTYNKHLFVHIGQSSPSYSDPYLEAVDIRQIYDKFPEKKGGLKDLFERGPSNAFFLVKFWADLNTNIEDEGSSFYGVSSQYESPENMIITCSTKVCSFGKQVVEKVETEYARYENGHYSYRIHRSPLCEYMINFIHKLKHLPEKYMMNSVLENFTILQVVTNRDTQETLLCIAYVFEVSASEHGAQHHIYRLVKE
Protocol: […] Compounds were dissolved at 10 mM in 100% DMSO and serial dilutions were made in 100% DMSO. The diluted compound solutions were incubated in white 384-well plates (Greiner Bio-One) for 1 h at room temperature with the above described mix. The final DMSO concentration present in the assay was 1%. […] The IC50 values were estimated by fitting the data by nonlinear fit regression (GraphPad Prism).

MKN-45/Ubc-luc cells [3] = experiment: Proliferation assay (resazurin), MKN-45; assay type: cell-based; details: 72 hours incubation
MKN-45/Ubc-luc cells [4] = experiment: Reporter gene specificity control (Ubc-luciferase), MKN-45
[5] = tested on: NCI-H2052 Tet-On shYAP_2371 pLenti6 MCAT_Luc cells; experiment: Proliferation assay (resazurin), NCI-H2052; assay type: cell-based; details: 72 hours incubation
Procedure, shortened: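 The NCI-H2052 line carries a Tet-inducible shRNA against the YAP1 3′UTR and an MCAT luciferase reporter. The day after seeding, it received eleven 2-fold compound dilutions at 0.1% DMSO, and viability was read by resazurin fluorescence.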

[6] = biological target: Avi-humanTEAD4 217-434 / Cy5 labeled humanYAP 60-100 (Homo sapiens (Human), UniProt Q15561); experiment: TR-FRET YAP-TEAD4 in-vitro biochemical assay; assay type: binding; details: 1 nM Avi-humanTEAD4 217-434, 20 nM Cy5-humanYAP 60-100, 1 h room temperature
Chain of Avi-humanTEAD4 217-434 / Cy5 labeled humanYAP 60-100 (Q15561 217-434): as above

[7] = read-out: Reporter gene assay MKN-45 IC50, MKN-45/Ubc-luc cells (YAP deleted, specificity control), 24 hours incubation
[8] = Homo sapiens, MKN-45, 24 h, read-out: Reporter gene assay MKN-45 IC50 [μM], MKN-45/Ubc-luc cells (YAP deleted, specificity control), 24 hours incubation

NC(=O)c1cccc(F)c1-c1c(Cl)ccc2c1C[C@@](CN[C@H]1CC[C@H](C(N)=O)CC1)(c1ccccc1)O2 (relative stereo) [Example 138a, 2-((2S,4S)-2-((((Trans)-4-carbamoylcyclohexyl)amino)methyl)-5-chloro-2-phenyl-2,3-dihydrobenzofuran-4-yl)-3-fluorobenzamide]
IC50 [1]: 239 nM
IC50 [2]: 18 nM
GI50 (MKN-45/Ubc-luc cells [3]): > 13300 nM
IC50 (MKN-45/Ubc-luc cells [4]; [7]): > 20 µM
GI50 [5]: 366 nM

NC(=O)c1cccc(F)c1-c1c(Cl)ccc2c1C[C@@](CN[C@H]1CC[C@@H](C(N)=O)CC1)(c1ccccc1)O2 (relative stereo) [Example 138b, 2-((2S,4S)-2-((((cis)-4-carbamoylcyclohexyl)amino)methyl)-5-chloro-2-phenyl-2,3-dihydrobenzofuran-4-yl)-3-fluorobenzamide]
IC50 [1]: 221 nM
IC50 [2]: 18 nM
GI50 (MKN-45/Ubc-luc cells [3]): > 10000 nM
IC50 (MKN-45/Ubc-luc cells [4]; [7]): 7.63 µM
GI50 [5]: 435 nM

NC[C@@]1(c2ccccc2)Cc2c(cc(F)c(Cl)c2-c2c(F)cccc2C(N)=O)O1 [Example 32a, 2-((2S,4S)-2-(Aminomethyl)-5-chloro-6-fluoro-2-phenyl-2,3-dihydrobenzofuran-4-yl)-3-fluorobenzamide]
IC50 ([1]; Homo sapiens, NCI-H2052, 24 h): 498 nM
IC50 [2]: 33 nM
GI50 (MKN-45/Ubc-luc cells [3]; Homo sapiens): 6120 nM
IC50 (MKN-45/Ubc-luc cells [4]; [8]): > 10 µM
GI50 ([5]; Homo sapiens, NCI-H2052, 72 h): 833 nM

CS(=O)(=O)[C@H]1CC[C@H](NC[C@@]2(c3ccccc3)Cc3c(cc(F)c(Cl)c3-c3c(C(N)=O)ccc(OC(F)F)c3F)O2)CC1 [Example 54b, 2-((2S,4S)-5-chloro-6-fluoro-2-((((trans)-4-(methylsulfonyl)cyclohexyl)amino)methyl)-2-phenyl-2,3-dihydrobenzofuran-4-yl)-4-(difluoromethoxy)-3-fluorobenzamide]
IC50 ([1]; Homo sapiens, NCI-H2052, 24 h): 118 nM
GI50 (MKN-45/Ubc-luc cells [3]; Homo sapiens): > 10000 nM
IC50 (MKN-45/Ubc-luc cells [4]; [8]): > 10 µM
IC50 [6]: 22 nM
GI50 ([5]; Homo sapiens, NCI-H2052, 72 h): 258 nM

CNC(=O)c1ccc(OCCO)c(F)c1-c1c(Cl)c(F)cc2c1C[C@](c1ccccc1)(C1CCN1)O2 (stereo partly drawn) [Example 149, 2-((2S,4S)-2-(Azetidin-2-yl)-5-chloro-6-fluoro-2-phenyl-2,3-dihydrobenzofuran-4-yl)-3-fluoro-4-(2-hydroxyethoxy)-N-methylbenzamide]
IC50 ([1]; Homo sapiens, NCI-H2052, 24 h): 96 nM
GI50 (MKN-45/Ubc-luc cells [3]; Homo sapiens): > 10000 nM
IC50 (MKN-45/Ubc-luc cells [4]; [8]): > 10 µM
IC50 [6]: 5 nM
GI50 ([5]; Homo sapiens, NCI-H2052, 72 h): 100 nM

CNC(=O)c1ccc(OC[C@H](C)O)c(F)c1-c1c(Cl)c(F)cc2c1[C@H](C)[C@](c1ccccc1)(C1CCN1)O2 (stereo partly drawn) [Example 150, 2-((2S,3S,4S)-2-(Azetidin-2-yl)-5-chloro-6-fluoro-3-methyl-2-phenyl-2,3-dihydrobenzofuran-4-yl)-3-fluoro-4-((S)-2-hydroxypropoxy)-N-methylbenzamide]
IC50 ([1]; Homo sapiens, NCI-H2052, 24 h): 74 nM
GI50 (MKN-45/Ubc-luc cells [3]; Homo sapiens): > 10000 nM
IC50 (MKN-45/Ubc-luc cells [4]; [8]): > 10 µM
IC50 [6]: 4 nM
GI50 ([5]; Homo sapiens, NCI-H2052, 72 h): 85 nM

C[C@H](O)COc1ccc(C(N)=O)c(-c2c(Cl)c(F)cc3c2C[C@](c2ccccc2)(C2CC(C)(O)CN2)O3)c1F (stereo partly drawn) [Example 159, 2-((2S,4S)-5-Chloro-6-fluoro-2-(4-hydroxy-4-methylpyrrolidin-2-yl)-2-phenyl-2,3-dihydrobenzofuran-4-yl)-3-fluoro-4-((S)-2-hydroxypropoxy)benzamide]
IC50 ([1]; Homo sapiens, NCI-H2052, 24 h): 1060 nM
GI50 (MKN-45/Ubc-luc cells [3]; Homo sapiens): > 15000 nM
IC50 (MKN-45/Ubc-luc cells [4]; [8]): > 15 µM
IC50 [6]: 122 nM
GI50 ([5]; Homo sapiens, NCI-H2052, 72 h): 856 nM

COc1ccc(C(N)=O)c(-c2c(Cl)c(F)cc3c2[C@H](O)[C@](c2ccccc2)(C2CCCN2)O3)c1F (stereo partly drawn) [Example 164, 2-((2S,3S,4S)-5-chloro-6-fluoro-3-hydroxy-2-phenyl-2-(pyrrolidin-2-yl)-2,3-dihydrobenzofuran-4-yl)-3-fluoro-4-methoxybenzamide]
IC50 ([1]; Homo sapiens, NCI-H2052, 24 h): 107 nM
GI50 (MKN-45/Ubc-luc cells [3]; Homo sapiens): > 10000 nM
IC50 (MKN-45/Ubc-luc cells [4]; [8]): > 10 µM
IC50 [6]: 4 nM
GI50 ([5]; Homo sapiens, NCI-H2052, 72 h): 107 nM

COc1ccc(C(N)=O)c(-c2c(Cl)c(F)cc3c2[C@H](OC)[C@](c2ccccc2)(C2CCCN2)O3)c1F (stereo partly drawn) [Example 165, 2-((2S,3S,4S)-5-chloro-6-fluoro-3-methoxy-2-phenyl-2-(pyrrolidin-2-yl)-2,3-dihydrobenzofuran-4-yl)-3-fluoro-4-methoxybenzamide]
IC50 ([1]; Homo sapiens, NCI-H2052, 24 h): 82 nM
GI50 (MKN-45/Ubc-luc cells [3]; Homo sapiens): > 10000 nM
IC50 (MKN-45/Ubc-luc cells [4]; [8]): > 10 µM
IC50 [6]: 5 nM
GI50 ([5]; Homo sapiens, NCI-H2052, 72 h): 131 nM

CO[C@H]1c2c(cc(F)c(Cl)c2-c2c(C(N)=O)ccc(OCCO)c2F)O[C@@]1(c1ccccc1)C1CCCN1 (stereo partly drawn) [Example 166, 2-((2S,3S,4S)-5-chloro-6-fluoro-3-methoxy-2-phenyl-2-(pyrrolidin-2-yl)-2,3-dihydrobenzofuran-4-yl)-3-fluoro-4-(2-hydroxyethoxy)benzamide]
IC50 ([1]; Homo sapiens, NCI-H2052, 24 h): 136 nM
GI50 (MKN-45/Ubc-luc cells [3]; Homo sapiens): > 10000 nM
IC50 (MKN-45/Ubc-luc cells [4]; [8]): > 10 µM
IC50 [6]: 8 nM
GI50 ([5]; Homo sapiens, NCI-H2052, 72 h): 256 nM

C[C@H](O)COc1ccc(C(N)=O)c(-c2c(Cl)c(F)cc3c2[C@H](C)[C@](c2ccccc2)(C2CCCN2)O3)c1F (stereo partly drawn) [Example 167, 2-((2S,3S,4S)-5-chloro-6-fluoro-3-methyl-2-phenyl-2-(pyrrolidin-2-yl)-2,3-dihydrobenzofuran-4-yl)-3-fluoro-4-((S)-2-hydroxypropoxy)benzamide]
IC50 ([1]; Homo sapiens, NCI-H2052, 24 h): 58 nM
GI50 (MKN-45/Ubc-luc cells [3]; Homo sapiens): > 10000 nM
IC50 (MKN-45/Ubc-luc cells [4]; [8]): > 10 µM
IC50 [6]: 10 nM
GI50 ([5]; Homo sapiens, NCI-H2052, 72 h): 82 nM

COc1ccc(C(N)=O)c(-c2c(Cl)ccc3c2C[C@](c2ccccc2)(C(C)N)O3)c1F (stereo partly drawn) [Example 168, 2-((2S,4S)-2-(1-Aminoethyl)-5-chloro-2-phenyl-2,3-dihydrobenzofuran-4-yl)-3-fluoro-4-methoxybenzamide]
IC50 ([1]; Homo sapiens, NCI-H2052, 24 h): 253 nM
GI50 (MKN-45/Ubc-luc cells [3]; Homo sapiens): > 10000 nM
IC50 (MKN-45/Ubc-luc cells [4]; [8]): > 10 µM
IC50 [6]: 12 nM
GI50 ([5]; Homo sapiens, NCI-H2052, 72 h): 267 nM

COCCOc1ccc(C(N)=O)c(-c2c(Cl)c(F)cc3c2[C@H](C)[C@](c2ccccc2)(C(C)N)O3)c1F (stereo partly drawn) [Example 169, 2-((2S,3S,4S)-2-(1-Aminoethyl)-5-chloro-6-fluoro-3-methyl-2-phenyl-2,3-dihydrobenzofuran-4-yl)-3-fluoro-4-(2-methoxyethoxy)benzamide]
IC50 ([1]; Homo sapiens, NCI-H2052, 24 h): 153 nM
GI50 (MKN-45/Ubc-luc cells [3]; Homo sapiens): 7830 nM
IC50 (MKN-45/Ubc-luc cells [4]; [8]): > 10 µM
IC50 [6]: 7 nM
GI50 ([5]; Homo sapiens, NCI-H2052, 72 h): 246 nM

COc1ccc(C(N)=O)c(-c2c(Cl)c(F)cc3c2C[C@](c2ccccc2)([C@@H]2CCCN2)O3)c1F [Example 174, 2-((2S,4S)-5-Chloro-6-fluoro-2-phenyl-2-((S)-pyrrolidin-2-yl)-2,3-dihydrobenzofuran-4-yl)-3-fluoro-4-methoxybenzamide]
IC50 [1]: 37 nM
GI50 (MKN-45/Ubc-luc cells [3]): 11000 nM
IC50 (MKN-45/Ubc-luc cells [4]; [7]): 12 µM
IC50 [6]: 3 nM
GI50 [5]: 21 nM

CNC(=O)c1ccc(OC)c(F)c1-c1c(Cl)c(F)cc2c1C[C@](c1ccccc1)([C@@H]1CCCN1)O2 [Example 175, 2-((2S,4S)-5-Chloro-6-fluoro-2-phenyl-2-((S)-pyrrolidin-2-yl)-2,3-dihydrobenzofuran-4-yl)-3-fluoro-4-methoxy-N-methylbenzamide]
IC50 [1]: 62 nM
GI50 (MKN-45/Ubc-luc cells [3]): 7000 nM
IC50 (MKN-45/Ubc-luc cells [4]; [7]): 13 µM
IC50 [6]: 4 nM
GI50 [5]: 50 nM

COc1ccc(C(N)=O)c(-c2c(Cl)c(F)cc3c2[C@H](C)[C@@](CN)(c2ccccc2)O3)c1F [Example 176, 2-((2S,3S,4S)-2-(Aminomethyl)-5-chloro-6-fluoro-3-methyl-2-phenyl-2,3-dihydrobenzofuran-4-yl)-3-fluoro-4-methoxybenzamide]
IC50 [1]: 18 nM
GI50 (MKN-45/Ubc-luc cells [3]): 16000 nM
IC50 (MKN-45/Ubc-luc cells [4]; [7]): 11 µM
IC50 [6]: 3 nM
GI50 [5]: 21 nM
